{"source": "paper PMC4013589", "about": "“LXXLL Peptide Converts Transportan 10 to a Potent Inducer of Apoptosis in Breast Cancer Cells” (International Journal of Molecular Sciences, 2014)", "key": {"[1]": {"test_system": "HeLa cervical cancer cells", "test": "Toxicity to HeLa cells", "type": "cell-based, human", "conditions": "for Toxicity to HeLa cells: data not shown, concentration not given"}, "MCF-7 cells [2]": {"test_system": "MCF-7 cells", "type": "cell-based, human", "conditions": "for Effect on survival of MCF-7 cells: propidium iodide viability assay, 5 μM every 24 h for 4 days, 1% FBS without insulin", "procedure": "(§1) Figure 3. Inhibition of cell viability by SRC-1 bioportides and their influence on ERα-mediated gene transactivation. (A) MCF-7 cells; (B) MDA-MB-231 cells. Cells were seeded in 24-well plates at low density and were treated every 24 h for 4 days with 5 μM peptide. Cell proliferation was measured after 1, 3, and 4 days of peptide treatment via a propidium iodide viability assay. […] MCF-7 cells were cultured with 5 μM of the indicated peptides and analyzed on day 2 of treatment. The fold change is the value compared with untreated cells. The values shown represent the mean values of one representative experiment, carried out in triplicate (mean ± SD). In total, three independent experiments were performed.\n(§2) Cells were plated at low density in 24-well plates in standard growth medium, as described above. Before peptide treatment, MCF-7 cell growth was impeded by growing cells in 1% FBS containing medium without addition of insulin. At the day of treatment, peptides were added to the growth medium containing 1% FBS to the indicated final concentration. The procedure was repeated every 24 h for 4 days; samples were drawn after 1, 3, and 4 days of treatment and analyzed by cell counting using the propidium iodide viability assay (Nucleocounter, ChemoMetec, Allerød, Denmark) according to manufacturer’s instructions."}, "MDA-MB-231 cells": {"test_system": "MDA-MB-231 cells", "type": "cell-based, human", "conditions": "for Effect on survival of MDA-MB-231 cells: propidium iodide viability assay, 5 μM every 24 h for 4 days, 1% FBS", "procedure": "as §1, §2"}, "[3]": {"test_system": "MCF-7 breast cancer cells", "test": "WST-1 viability assay, MCF-7 cells", "type": "cell-based, human", "conditions": "WST-1, 5 μM peptide, treated every 24 h, day 3, 1% FBS without insulin; triplicate", "procedure": "(§3) Figure 1. Effects of SRC-1 bioportides on cancer and primary fibroblast cells. (A) Viability of MCF-7 cells; (B) Viability of FB188 cells. Cells were seeded in 96-well plates at a density of 3000 or 2000 cells/well, respectively, and treated after every 24 h with the indicated peptide concentrations. Viability of both cell types was monitored at day 3 via the WST-1 assay. The values shown represent the mean values of one experiment, carried out in triplicate (mean ± SD). In total, three independent experiments were performed.\n(§4) Cytotoxicity of peptides was measured via the WST-1 conversion assay (Roche, Mannheim, Germany). FB188 and MCF-7 cells were seeded in 96-well plates at a density of 2000 or 3000 cells/well, respectively, and allowed to adhere overnight. Subsequently the cells were pre-incubated for two days in medium containing 1% FBS without supplementary insulin and exposed to the indicated concentrations of the respective peptide for up to 3 days. WST-1 conversion was determined by colorimetric analysis at 450 nm. Briefly, WST-1 reagent (1/10 of sample volume) was added directly to the growth medium and incubated at 37 °C for 4 h. The absorbance was determined using a microplate reader (Molecular Devices, Sunnyvale, CA, USA) at 450 nm. Untreated cells were designated a cell survival value of 100%."}, "[4]": {"test_system": "human primary fibroblasts (FB188 cells)", "test": "WST-1 viability assay, primary fibroblasts (FB188)", "type": "cell-based", "procedure": "as §3, §4"}, "pS2 mRNA in MCF-7 cells": {"test_system": "pS2 mRNA in MCF-7 cells", "test": "Quantitative RT-PCR of ERα target gene pS2, MCF-7", "type": "cell-based, human", "conditions": "MCF-7, 5 μM peptide, day 2, qRT-PCR relative to GAPDH, versus untreated cells", "procedure": "as §1\n(§5) For quantitative RT-PCR (qPCR) analysis, MCF-7 cells were treated as described above for the proliferation assay. On day 2, cells were lysed and total RNA was extracted using a commercial RNAqueous Kit (Ambion, Austin, TX, USA). Genomic DNA was removed with DNase I treatment (Ambion) according to the supplier’s protocol. RNA was reverse-transcribed using SuperScript III Reverse Transcriptase (Invitrogen, Carlsbad, CA, USA). Subsequently, qPCR was performed using Platinum SYBR Green (Invitrogen) according to the manufacturer’s protocol. […]"}, "CTSD mRNA in MCF-7 cells": {"test_system": "CTSD mRNA in MCF-7 cells", "test": "Quantitative RT-PCR of ERα target gene CTSD, MCF-7", "type": "cell-based, human", "conditions": "MCF-7, 5 μM peptide, day 2, qRT-PCR; similar to TP10 or TP10-SRC1_1222–1245 treated cells", "procedure": "as §1, §5"}, "BCL2 mRNA in MCF-7 cells": {"test_system": "BCL2 mRNA in MCF-7 cells", "test": "Quantitative RT-PCR of ERα target gene BCL2, MCF-7", "type": "cell-based, human", "conditions": "MCF-7, 5 μM peptide, day 2, qRT-PCR; similar to TP10 or TP10-SRC1_1222–1245 treated cells", "procedure": "as §1, §5"}, "MCF-7 cells [5]": {"test_system": "MCF-7 cells", "test": "Annexin V / 7-AAD flow cytometric detection of apoptosis", "type": "cell-based, human", "conditions": "MCF-7, 5 μM peptide, 24 h, 1% FBS without insulin, flow cytometry", "procedure": "Figure 4. Flow cytometric detection of apoptosis by annexin V and 7-amino-actinomycin D (7-AAD) staining. (A) Representative dot plots of 7-AAD versus annexin-V-PE. MCF-7 cells were left untreated (control) or were treated with 5 μM of peptide for 24 h in media supplemented with 1% serum. The lower left quadrant contains the vital (double negative) population; the lower right contains the apoptotic (annexin V^+/7-AAD^−) population; the upper right contains the late apoptotic/necrotic (annexin V^+/7-AAD^+) population; and the upper left contains the pre-necrotic (annexin V^−/7-AAD^+) population; (B) Average percentage of apoptotic and late apoptotic/necrotic cells counted from dot plots taken from one representative experiment, error bars indicate mean ± SD. Data are statistically significant with * p < 0.05, ** p < 0.01. In total, three independent experiments were performed.\nAnnexin V staining was measured using the PE-annexin-V Apoptosis Detection Kit I (BD Biosciences, San Diego, CA, USA). MCF-7 cells (3 × 10^5) were treated for 24 h with 5 μM peptide in growth medium supplemented with 1% FBS and without insulin. […] Following the addition of 0.4 mL of 1× Binding Buffer, fluorescence of annexin V and 7-AAD was detected in the FL-2 and FL-3 channels, respectively, within 1 h using a FACS Calibur flowcytometer (BD Biosciences, Sparks, MD, USA). […]"}}, "note": "“Also recorded” adds a separate entry of the source. Where no end group is shown, it is not given here.", "data": [{"substance": "NLS-RRRRRRR-YSQTSHKLVQLLTTAEQQ [R7-SRC1LXXLL]", "values": [{"measurement": "Toxicity to HeLa cells", "setting": "[1]", "value": "not toxic"}, {"measurement": "Effect on survival of MCF-7 cells", "setting": "MCF-7 cells [2]", "value": "did not affect survival"}, {"measurement": "Effect on survival of MDA-MB-231 cells", "setting": "MDA-MB-231 cells", "value": "did not affect survival"}]}, {"substance": "NLS-RRRRRRR-PQMQQNVFQYPGAGMVPQGEANF [R7-SRC1_1222–1245, randomly chosen non-structured fragment of SRC-1 with N-terminal R7; negative control]", "values": [{"measurement": "Toxicity to HeLa cells", "setting": "[1]", "value": "not toxic"}, {"measurement": "Effect on survival of MCF-7 cells", "setting": "MCF-7 cells [2]", "value": "did not affect survival"}, {"measurement": "Effect on survival of MDA-MB-231 cells", "setting": "MDA-MB-231 cells", "value": "did not affect survival"}]}, {"substance": "NLS-RRRRRRR [R7, hepta-arginine cell-penetrating peptide with SV40 NLS, control, reference compound]", "values": [{"measurement": "Effect on viability of MCF-7 cells", "setting": "[3]", "value": "did not have any effect"}, {"measurement": "Effect on viability of human primary fibroblasts", "setting": "[4]; WST-1, 5 μM peptide, treated every 24 h, day 3, 1% FBS, triplicate", "value": "did not have any effect"}]}, {"substance": "TP10 [reference compound]", "values": [{"measurement": "Effect on viability of MCF-7 cells", "setting": "[3]", "value": "did not have any effect"}, {"measurement": "pS2 mRNA levels", "setting": "pS2 mRNA in MCF-7 cells", "value": "No down-regulation"}]}, {"substance": "PKKKRKVAGYLLGKINLKALAALAKKILYSQTSHKLVQLLTTAEQQ [TP10-SRC1LXXLL]", "values": [{"measurement": "Effect on viability of MCF-7 cells", "setting": "[3]", "value": "significantly more toxic; also recorded: highly cytotoxic"}, {"measurement": "Concentration affecting the viability of primary fibroblasts", "setting": "[4]; WST-1, day 3", "value": "≥ 4", "unit": "µM"}, {"measurement": "Cytotoxicity to HeLa cells", "setting": "[1]; 5 μM", "value": "highly cytotoxic"}, {"measurement": "Cells killed", "setting": "MCF-7 cells [2]; MCF-7, 5 μM every 24 h, day 3, propidium iodide assay", "value": 50, "unit": "%"}, {"measurement": "Number of viable cells", "setting": "MCF-7 cells [2]; MCF-7, 5 μM every 24 h, day 4, propidium iodide assay", "value": "less than 1%"}, {"measurement": "Effect on survival of MCF-7 cells", "setting": "MCF-7 cells [2]", "value": "significant cytotoxic effects"}, {"measurement": "Cells killed", "setting": "MDA-MB-231 cells; MDA-MB-231, 5 μM every 24 h, day 3, propidium iodide assay", "value": 99, "unit": "%"}, {"measurement": "Number of viable cells", "setting": "MDA-MB-231 cells; MDA-MB-231, 5 μM every 24 h, day 4, propidium iodide assay", "value": "less than 1%"}, {"measurement": "pS2 mRNA levels", "setting": "pS2 mRNA in MCF-7 cells", "value": "No down-regulation"}, {"measurement": "CTSD mRNA expression", "setting": "CTSD mRNA in MCF-7 cells", "value": "slightly elevated"}, {"measurement": "BCL2 mRNA expression", "setting": "BCL2 mRNA in MCF-7 cells", "value": "slightly elevated"}, {"measurement": "Annexin V and 7-AAD double-stained (late apoptotic/necrotic) cells", "setting": "MCF-7 cells [5]", "value": "smaller population of cells that stained for both 7-AAD and annexin V"}, {"measurement": "Annexin V (+)/7-AAD (−) stained (early apoptotic) cells", "setting": "MCF-7 cells [5]; compared with untreated cells", "value": "predominant population of annexin V positive and 7-AAD negative cells"}]}]}
